Measurements published in patent US20220389058A1, “PEPTIDES AND COMPOSITIONS FOR USE IN COSMETICS AND MEDICINE” (LIPOTRUE, S.L., priority 2019, published 2022).

How the values were obtained:
human skin explants = test: Ex vivo fibrillin-1 immunostaining after methylglyoxal (Example 15); details: cream containing 1% Ac-SEQ ID NO: 1-NH2, topical 2 mg/cm^2; methylglyoxal 500 μM; day 9
Procedure: Briefly, human skin explants from a person were kept in survival in BEM culture medium at 37° C. in a humid, 5% CO2 atmosphere. A placebo cream and a cream containing 1% Ac-SEQ ID NO: 1-NH2, prepared according to Example 6, were applied topically on the basis of 2 μL per explant (2mg/cm^2) and spread using a small spatula on day 0 (DO), day 1, day 4, day 6 and day 8. […] To induce glycation, a solution of Methylglyoxal (MG) was incorporated in the BEM culture medium at a final concentration of 500 μM on day 4, day 6 and day 8, on the concerned batches “MG” (all samples except control untreated samples). Explants were collected at each timepoint and cut in two parts. Half was fixed in buffered formalin solution and half was frozen at −80° C.
The nuclei were counterstained with propidium iodide.

HEKa cells = test: Expression of genes related to epidermal cell cohesion, RT-qPCR in HEKa (Example 9); type: cell-based, Human; details: 0.01 mg/mL, 24 hours
Procedure: (§1) A stock solution of the peptide was prepared in water at 1 mg/mL. Working solution was freshly prepared at the specified concentration from stock solution in the corresponding supplemented medium.
(§2) RNA (ribonucleic acid) extraction and RT-qPCR (reverse transcription quantitative polymerase chain reaction) were performed. Briefly, HEKa cells were seeded in duplicate (n=2) in 6-well plates at a density of 4×10^5 cells/well and maintained at standard culture conditions (Medium Epilife supplemented with 1% (v/v) EDGS and 1% (v/v) penicillin/streptomycin; 37° C., 95% room humidity, 5% CO2) for 24 hours.
Then, cells were treated with peptide Ac-SEQ ID NO: 1-NH2, Ac-SEQ ID NO: 2-NH2 or Ac-SEQ ID NO: 3-NH2 at the concentration of 0.01 mg/mL for 24 hours. Untreated cells were used as basal or negative control.
(§3) Cells were finally lysed, and replicates were pooled together for RNA extraction using Qiagen RNeasy Mini kit following manufacturer's instructions. Purified RNAs were used to generate the corresponding cDNAs (complementary deoxyribonucleic acids) by reverse transcription using a commercial kit High capacity cDNA reverse transcription kit (Applied Biosystems) which served as templates for amplification. RT-qPCR was performed with the panel of appropriate TaqMan assay probes for genes shown in table 1 (plus GAPDH—Glyceraldehyde 3-phosphate dehydrogenase—that was used as housekeeping gene) and 2×gene expression Master Mix using StepOne plus Real-Time PCR instrument. Amplification included 40 cycles of: 15 seconds at 95° C. (denaturation) and 1 minute at 60° C. (Annealing and extension) (Arya, M., Shergill, I. S., Williamson, M., Gommersall, L., Arya, N., Patel, H. R. (2005) Basic principles of real-time quantitative PCR. Expert Rev. Mol. Diagn.; 5(2):209-19; and Jozefczuk, J. and Adjaye, J. (2011) Quantitative real-time PCR-based analysis of gene expression. Methods Enzymol. 500; 99-109).
The obtained data was analysed using the ΔΔCt method, which provides the target gene expression values as fold changes in the treated sample compared with an untreated basal sample. Both samples were normalized with the relative expression of a housekeeping gene GAPDH (Glyceraldehyde 3-phosphate dehydrogenase).

IL33 [1] = test: IL33 expression modulation by RT-qPCR in HEKa cells (Example 7); type: cell-based, Human; details: 0.01 mg/mL, 24 hours
Procedure: as §1
RNA (ribonucleic acid) extraction and RT-qPCR (reverse transcription quantitative polymerase chain reaction) were performed. Briefly, HDFa and HEKa cells were seeded in duplicate (n=2) in 6-well plates at a density of 4×10^5 cells/well and maintained at standard culture conditions (106 Medium supplemented with 1% (v/v) LSGS for HDFa cells; Medium Epilife supplemented with 1% (v/v) EDGS and 1% (v/v) penicillin/streptomycin for HEKa cells; 37° C., 95% room humidity, 5% CO2) for 24 hours. Then, cells were treated with peptide Ac-SEQ ID NO: 1-NH2, Ac-SEQ ID NO: 2-NH2 or Ac-SEQ ID NO: 3-NH2 at the concentration of 0.01 mg/mL for 24 hours. Untreated cells were used as basal or negative control.
as §3, with “the” for “the panel of”, “IL33” for “genes shown in table 1”, “Amplification included 40 cycles of: 15 seconds at 95° C. (denaturation) and 1 minute at 60° C.” left out
(§4) The obtained data was analysed using the ΔΔCt method, which provides the target gene expression values as fold changes in the treated sample compared with an untreated basal sample. […]

IL33 [2] = test: IL33 expression modulation by RT-qPCR in HDFa cells (Example 7); type: cell-based, Human; details: 0.01 mg/mL, 24 hours
Procedure: as §1
as §2, with “Briefly, HDFa and” for “Briefly,”, “(106 Medium supplemented with 1% (v/v) LSGS for HDFa cells; Medium” for “(Medium”, “penicillin/streptomycin for HEKa cells;” for “penicillin/streptomycin;”, “hours. […]” for “hours.”
Cells were finally lysed, and replicates were pooled together for RNA extraction using Qiagen RNeasy Mini kit following manufacturer's instructions. […] (Annealing and extension) (Arya, M., Shergill, I. S., Williamson, M., Gommersall, L., Arya, N., Patel, H. R. (2005) Basic principles of real-time quantitative PCR. Expert Rev. Mol. Diagn.; 5(2):209-19; and Jozefczuk, J. and Adjaye, J. (2011) Quantitative real-time PCR-based analysis of gene expression. Methods Enzymol. 500; 99-109).
as §4

Ac-Arg-Arg-Gln-Met-Arg-Glu-NH2 (Ac-RRQMRE-NH2) [Ac-SEQ ID NO: 1-NH2]
increase in fibrillin 1 staining when compared with the MG-exposed untreated control (human skin explants): 86% | CDSN Fold change between treated cells and basal control (HEKa cells): 1.46 Fold change | CLDN1 Fold change between treated cells and basal control (HEKa cells): 1.57 Fold change | CLDN4 Fold change between treated cells and basal control (HEKa cells): 2.64 Fold change | DSC2 Fold change between treated cells and basal control (HEKa cells): 1.23 Fold change | DSP Fold change between treated cells and basal control (HEKa cells): 1.28 Fold change | JUP Fold change between treated cells and basal control (HEKa cells): 1.42 Fold change | OCLN Fold change between treated cells and basal control (HEKa cells): 1.98 Fold change | PCDH1 Fold change between treated cells and basal control (HEKa cells): 2.41 Fold change | PKP2 Fold change between treated cells and basal control (HEKa cells): 1.72 Fold change | PPL Fold change between treated cells and basal control (HEKa cells): 1.54 Fold change | TJP1 Fold change between treated cells and basal control (HEKa cells): 1.25 Fold change | IL33 gene expression, fold change in treated cells with regard to basal control (IL33 [1]): −4.58 fold change | IL33 expression, fold change treated cells with regard to basal control (IL33 [2]): −1.22 fold change
